Data: US20100099756A1, “USES OF INCENSOLE, INCENSOLE ACETATE AND DERIVATIVES THEREOF” (YISSUM RESEARCH DEVELOPMENT COMPANY OF THE HEBREW …, priority 2006, published 2010)

Columns and labels:
ROS generation = assay: ROS production by zymosan-activated RAW 264.7 macrophages (chemiluminescence); format: cell-based, mice
Description: (§1) (A(1)) Representative Western Blot bands of Cox2 are shown with tubulin as reference. (A(2)) COX-2 levels were measured in RAW 264.7 cells incubated for 24 hrs. with LPS in the presence or in the absence of IA (60 μM/ml); **, p<0.001. (B) Murine peritoneal macrophages were activated by LPS (1 μg/ml for 24 hrs.) in absence of IA or in the presence of IA at indicated concentrations. NO generation was determined by measuring the nitrite accumulated in the supernatants; **, p<0.001. (C) Generation of ROS by RAW 264.7 macrophages (5×10^5 cells in 0.5 ml Hanks' balanced salt solution) was measured by chemiluminescence. Cells were pre-incubated with various doses of IA for 24 hrs before luminol (10 μl) and zymosan (30 μl) were added to the tubes; *, p<0.05; **, p<0.01; ***, p<0.001
ROS (Reactive Oxygen Species) Production by RAW 264.7 Macrophages. Raw 264.7 cells were scrapped, washed and resuspended in Hanks' balanced salt solution (without phenol red). For measurement of chemiluminescence, 0.5 ml of cell suspension (5×10^5 cells) was added to each luminometer tube, together with various doses of IA tested (dissolved in ethanol and further diluted with Hanks). […] 10 μl of luminol (Sigma, St. Louis, USA) and 30 μl of zymosan (Sigma, St. Louis, USA) were added to the tubes, and the chemiluminescence was measured immediately in a luminometer (Biolumate LB 95, Berhold, Wilbad, Germany).

NO generation = assay: Nitric oxide (NO) levels in LPS-activated murine peritoneal macrophages; format: cell-based, mice
Description: as §1
Peritoneal macrophages were harvested from C57BL/6 female mice four days after intraperitoneal injection of 1.5 ml of a 3% thioglycollate medium (Difco, N.J., USA). […]
Nitric Oxide (NO) Levels. […] NO generation was determined by measuring the nitrite accumulated in the supernatants (100 μl) of the IA-treated macrophages as follows. […] Following 10 min of incubation at room temperature, the color production was measured at 550 nm with an ELISA reader. The concentration of the nitrite was calculated according to a standard curve.

TRPV1 = TRPV1 (Homo sapiens, UniProt Q8NER1); assay: Whole-cell voltage-clamp, TRPV1(+) cells; format: cell-based; settings: IA 200 μM
Sequence of TRPV1 (Q8NER1 whole entry): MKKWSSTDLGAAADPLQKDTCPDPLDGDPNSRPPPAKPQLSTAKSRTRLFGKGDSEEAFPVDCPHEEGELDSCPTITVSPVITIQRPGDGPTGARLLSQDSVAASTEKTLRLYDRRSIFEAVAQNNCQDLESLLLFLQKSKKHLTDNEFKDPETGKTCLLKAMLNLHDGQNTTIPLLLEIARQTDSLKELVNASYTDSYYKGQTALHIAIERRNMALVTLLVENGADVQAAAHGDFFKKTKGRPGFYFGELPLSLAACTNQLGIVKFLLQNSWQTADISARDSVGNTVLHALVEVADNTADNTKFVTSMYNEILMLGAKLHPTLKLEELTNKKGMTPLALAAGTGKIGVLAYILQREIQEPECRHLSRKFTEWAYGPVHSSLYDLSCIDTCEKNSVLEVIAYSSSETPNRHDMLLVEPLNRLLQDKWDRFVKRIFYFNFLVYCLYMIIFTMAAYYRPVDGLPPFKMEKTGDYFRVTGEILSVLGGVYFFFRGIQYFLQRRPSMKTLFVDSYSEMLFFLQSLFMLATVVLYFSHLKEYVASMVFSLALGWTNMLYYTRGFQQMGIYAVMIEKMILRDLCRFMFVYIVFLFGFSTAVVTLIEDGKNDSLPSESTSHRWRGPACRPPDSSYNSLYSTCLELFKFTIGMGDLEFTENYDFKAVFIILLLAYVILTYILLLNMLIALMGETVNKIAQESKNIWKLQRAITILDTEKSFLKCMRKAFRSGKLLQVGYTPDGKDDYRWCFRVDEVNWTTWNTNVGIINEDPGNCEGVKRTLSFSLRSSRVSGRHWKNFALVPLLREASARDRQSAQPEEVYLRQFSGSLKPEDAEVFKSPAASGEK
Description: TRPV3(+) response to IA is shown for reference. *, p<0.001. Error bars represent SEM, n=4-5.
Electrophysiological recording. Currents were recorded using whole-cell voltage-clamp. Pipettes were pulled from microcapillary glass (A-M Systems). A coverslip containing cells was transferred to a 300 μL chamber that was constantly perfused (1-2 mL/min) with external solution. Voltage protocols were generated and data were digitized and recorded using Pulse (HEKA Elektronik) software in conjunction with an Axopatch 200A amplifier (Axon Instruments), and the data analyzed using an in-house Visual Basic (Microsoft) analysis program.
The pipette solution contained (in mM): 121.5 Kgluconate, 10 HEPES, 17 KCl, 9 NaCl, 1 MgCl2, 0.2 EGTA, 2 MgATP, and 0.5 NaATP, pH 7.2. The external solution contained (in mM): 120 NaCl, 5 KCl, 1 MgCl2, 2 CaCl2, 10 Glucose and 20 HEPES, pH 7.4 with NaOH. The measured charge (pC) was defined as the charge elicited between -85 and -45 mV by a ramping voltage stimulus (−85 mV to +35 mV, 0.54 mV/msec; holding potential -55 mV). Currents were sampled at 5 kHz. Experimental and control cells were alternated whenever possible. Control values were obtained from adjacent cells with no detectable YFP fluorescence, presumed to be non-TRPV3-expressing.

COX-2 = COX-2 production in LPS-stimulated RAW 264.7 cells; format: cell-based, mice; settings: 60 μM, P<0.001
Description: as §1
COX-2 Production. RAW 264.7 cells were treated with subtoxic concentrations (confirmed by MTT colorimetric assay) of incensole acetate (10-20 μg/ml, dissolved in ethanol and further diluted in medium) and incubated with lipopolysaccharide (LPS, E. coli 1 μg/ml for 24 hs, Sigma, Israel) for 16-24 hrs. […]
Proteins were extracted from cells in NP-40 lysis buffer (50 mM Tris/HCl pH 7.5, 150 mM NaCl, 0.1% SDS, 1% NP-40, 10 mM EDTA, 1 mM phenylmethylsulfonylfluoride (PMSF), and 10 mM DTT). Total protein concentration was determined using the Bradford method and the lysates were analyzed by Western blotting.

closed head injury = assay: Object recognition test after CHI; format: in vivo, mice
Description: This effect was sustained from 24 h to 21 days following injury as determined by the Mann-Whitney test (n=9-10 per group; * p<0.01; **p<0.001, as compared to vehicle treated, at the same day). (B) Mice were subjected to the object recognition test (Example 6) 3, 7, 14 and 21 days after CHI. The absolute time spent exploring each of the two objects was recorded and the % time calculated. At baseline (bl), when presented with two identical objects, exploration time of each object was about 50% in both groups. In the test (T) situation, after one of the objects was replaced by a novel one the % time spent exploring the new object was calculated.
Memory function was assessed by ORT (Object Recognition Test) and the results are depicted in FIG. 5B. […] Both groups spent equal time at the two objects (˜50% of total exploration time) at the baseline measurements, at all times post CHI. […] At 21 days, it appears that the vehicle-treated mice regained their ability, and exploration time reached a similar level to that of the IA-treated mice.

With `CC(=O)OC1CC/C(C)=C/CC/C(C)=C/CC2(C(C)C)CCC1(C)O2` (stereo not drawn) [IA, incensole acetate] the inhibition at 60 µM (ROS generation; Mus musculus, RAW264.7, at 60 μM, p=0.0021) was roughly 45%, the “ROS generation, dose dependence” value (ROS generation; three concentrations, 24 hrs pre-incubation, ANOVA P<0.0001) was “significant dose-dependent inhibitory effect” and the “NO generation (nitrite in supernatants), dose dependence” value (NO generation; LPS 1 μg/ml for 24 hrs, ANOVA P<0.0001) was “inhibited NO generation in a dose dependent manner”. The NO production (NO generation; at 80 μM, p=0.0022) was “about 45%”, the “current activation in TRPV1(+) cells” value (TRPV1) was “does not activate currents” and the COX-2 production (COX-2) was “inhibited”. For the same compound, the “time exploring the new object, persistence of the effect” value (closed head injury; 7 and 14 days post injury) was “sustained for 7 and 14 days”, the “time exploring the new object” value (closed head injury; 3 days post injury, 50 mg/kg, P=0.01) was “significantly longer times exploring the new object” and the “memory function of naïve, non-injured mice” value (closed head injury; non-injured mice, data not shown) was “not affected”.
